PubChem BioAssay AID248 (DTP/NCI, 2004)
Values joined by “and” are separate entries in the source; they are usually repeats but may differ in a detail not shown here. Equal values may be shown once. Toxic doses and inconclusive results are not listed. Rule as the data show it: active = T/C of 150% or more; inactive = T/C below 125%.

System: L1210 leukemia ip in BDF1 mice, survival T/C
Assay: NCI In Vivo Anticancer Drug Screen. Data for tumor model L1210 Leukemia (intraperitoneal) in B6D2F1 (BDF1) mice
Settings: endpoint: mean survival time, higher = longer survival
Outline: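 Value reflects the ratio of survival in compound-treated mice to survival in vehicle-treated controls, with both groups carrying the same transplanted tumor.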

[1] = dose: 100.0 mg/kg/injection, schedule: Q04DX003 (ip), vehicle: Klucel (hydroxypropylcellulose) (HPC)
[2] = dose: 200.0 mg/kg/injection, schedule: Q04DX003 (ip), vehicle: Klucel (hydroxypropylcellulose) (HPC)
[3] = dose: 400.0 mg/kg/injection, schedule: Q04DX003 (ip), vehicle: Klucel (hydroxypropylcellulose) (HPC)
[4] = dose: 100.0 mg/kg/injection, schedule: Q01DX009 (ip), vehicle: saline
[5] = dose: 200.0 mg/kg/injection, schedule: Q01DX009 (ip), vehicle: saline
[6] = dose: 100.0 mg/kg/injection, schedule: Q01DX001 (ip), vehicle: saline
[7] = dose: 200.0 mg/kg/injection, schedule: Q01DX001 (ip), vehicle: saline
[8] = dose: 400.0 mg/kg/injection, schedule: Q01DX001 (ip), vehicle: saline
[9] = dose: 100.0 mg/kg/injection, schedule: Q04DX003 (ip), vehicle: saline with Tween-80
[10] = dose: 200.0 mg/kg/injection, schedule: Q04DX003 (ip), vehicle: saline with Tween-80
[11] = dose: 400.0 mg/kg/injection, schedule: Q04DX003 (ip), vehicle: saline with Tween-80
[12] = dose: 50.0 mg/kg/injection, schedule: Q01DX009 (ip), vehicle: saline with Tween-80
[13] = dose: 100.0 mg/kg/injection, schedule: Q01DX009 (ip), vehicle: saline with Tween-80
[14] = dose: 200.0 mg/kg/injection, schedule: Q01DX009 (ip), vehicle: saline with Tween-80

Measured: T/C

CCCCCCCCC1OC1CCCCCCCC(=O)N1CCN(C)CC1 (configuration not stated)
inactive: dose: 75.0 mg/kg/injection, schedule: Q01DX001 (ip), vehicle: carboxymethylcellulose (CMC) 92 % of control | dose: 150.0 mg/kg/injection, schedule: Q01DX001 (ip), vehicle: carboxymethylcellulose (CMC) 97 % of control | dose: 300.0 mg/kg/injection, schedule: Q01DX001 (ip), vehicle: carboxymethylcellulose (CMC) 91 % of control

CC(=O)Nc1cc(Cl)cc2c1-c1ccc(Cl)cc1C2N(C)C (configuration not stated)
inactive: dose: 50.0 mg/kg/injection, schedule: Q01DX001 (ip), vehicle: carboxymethylcellulose (CMC) 98 % of control | dose: 100.0 mg/kg/injection, schedule: Q01DX001 (ip), vehicle: carboxymethylcellulose (CMC) 90 % of control | dose: 200.0 mg/kg/injection, schedule: Q01DX001 (ip), vehicle: carboxymethylcellulose (CMC) 106 % of control | dose: 400.0 mg/kg/injection, schedule: Q01DX001 (ip), vehicle: carboxymethylcellulose (CMC) 98 % of control

CCN(c1ccccc1)c1ccc(C=O)cc1
inactive: dose: 100.0 mg/kg/injection, schedule: Q01DX009 (ip), vehicle: Klucel (hydroxypropylcellulose) (HPC) 98 % of control | [1] 97 % of control | dose: 200.0 mg/kg/injection, schedule: Q01DX009 (ip), vehicle: Klucel (hydroxypropylcellulose) (HPC) 94 % of control | [2] 102 % of control | dose: 400.0 mg/kg/injection, schedule: Q01DX009 (ip), vehicle: Klucel (hydroxypropylcellulose) (HPC) 93 % of control | [3] 105 % of control

CC(=O)C(Br)CC(C)C (configuration not stated)
inactive: dose: 75.0 mg/kg/injection, schedule: Q01DX001 (ip), vehicle: saline 102 % of control | dose: 150.0 mg/kg/injection, schedule: Q01DX001 (ip), vehicle: saline 105 % of control | dose: 300.0 mg/kg/injection, schedule: Q01DX001 (ip), vehicle: saline 100 % of control

Cc1ccc(S(=O)(=O)N2CCOCC2)cc1
inactive: [1] 98 % of control | [2] 100 % of control | [3] 108 % of control

Cc1ncc2c(=O)[nH]ccn12
inactive: dose: 100.0 mg/kg/injection, schedule: Q04DX003 (ip), vehicle: water 103 % of control | dose: 200.0 mg/kg/injection, schedule: Q04DX003 (ip), vehicle: water 103 % of control | dose: 400.0 mg/kg/injection, schedule: Q04DX003 (ip), vehicle: water 103 % of control

NS(=O)(=O)c1ccccc1C(=O)O
inactive: [4] 96 % of control | [5] 91 % of control

COC(=O)CC[C@@H](C)[C@H]1CC[C@H]2[C@@H]3CC[C@@H]4C[C@H](O)CC[C@]4(C)[C@H]3CC[C@]12C
inactive: dose: 100.0 mg/kg/injection, schedule: Q01DX009 (sc), vehicle: olive oil, sesame oil, peanut oil 107 % of control | dose: 200.0 mg/kg/injection, schedule: Q01DX009 (sc), vehicle: olive oil, sesame oil, peanut oil 102 % of control | dose: 400.0 mg/kg/injection, schedule: Q01DX009 (sc), vehicle: olive oil, sesame oil, peanut oil 95 % of control

CC1(C)OC2/C(=N/O)C3COC(O3)C2O1 (configuration not stated)
inactive: [6] 101 % of control | [7] 95 % of control | [8] 106 % of control

O=S(=O)(NCCCl)c1ccc(Br)cc1
inactive: dose: 100.0 mg/kg/injection, schedule: Q01DX001 (ip), vehicle: other 101 % of control | [9] 95 % of control | dose: 200.0 mg/kg/injection, schedule: Q01DX001 (ip), vehicle: other 90 % of control | [10] 103 % of control | dose: 400.0 mg/kg/injection, schedule: Q01DX001 (ip), vehicle: other 101 % of control | [11] 97 % of control

CC1(C)CC(NC(=O)NCCCl)CC(C)(C)N1
inactive: dose: 12.5 mg/kg/injection, schedule: Q01DX009 (ip), vehicle: saline 98 % of control | dose: 12.5 mg/kg/injection, schedule: Q04DX003 (ip), vehicle: saline 101 % of control | dose: 25.0 mg/kg/injection, schedule: Q01DX009 (ip), vehicle: saline 95 % of control | dose: 25.0 mg/kg/injection, schedule: Q04DX003 (ip), vehicle: saline 114 % of control | dose: 50.0 mg/kg/injection, schedule: Q04DX003 (ip), vehicle: saline 104 % of control

O=C1NC(c2cccc3ccccc23)Nc2ccc(Cl)cc21 (configuration not stated)
inactive: dose: 50.0 mg/kg/injection, schedule: Q01DX009 (ip), vehicle: Klucel (hydroxypropylcellulose) (HPC) 108 % of control and 109 % of control | dose: 150.0 mg/kg/injection, schedule: Q01DX009 (ip), vehicle: Klucel (hydroxypropylcellulose) (HPC) 116 % of control

O=C(Nc1ccccc1)c1ccccc1
inactive: [1] 97 % of control | [2] 94 % of control | [3] 103 % of control

OCCC=C(c1ccccc1)c1ccccc1
inactive: [12] 107 % of control | [13] 100 % of control | [14] 104 % of control

C/C(=C\COc1ccc2ccc(=O)oc2c1)C1=CC(=O)C(C)(C)O1
inactive: [13] 96 % of control | [9] 96 % of control | [14] 94 % of control | [10] 91 % of control | dose: 400.0 mg/kg/injection, schedule: Q01DX009 (ip), vehicle: saline with Tween-80 97 % of control | [11] 94 % of control

COC1CCC(/C(C#N)=C/c2ccco2)CC1 (configuration not stated)
inactive: dose: 100.0 mg/kg/injection, schedule: Q04DX002 (ip), vehicle: saline with Tween-80 97 % of control and 89 % of control | dose: 200.0 mg/kg/injection, schedule: Q04DX002 (ip), vehicle: saline with Tween-80 94 % of control and 99 % of control | dose: 800.0 mg/kg/injection, schedule: Q04DX002 (ip), vehicle: saline with Tween-80 103 % of control

N=[N+]=CC(=O)CC(N)C(=O)O (configuration not stated)
inactive: dose: 50.0 mg/kg/injection, schedule: Q01DX001 (ip), vehicle: saline 94 % of control | dose: 50.0 mg/kg/injection, schedule: Q01DX009 (ip), vehicle: saline 104 % of control | [6] 94 % of control | [4] 107 % of control | dose: 128.0 mg/kg/injection, schedule: Q03HX024 (ip), vehicle: saline 117 % of control | [7] 99 % of control | [5] 113 % of control | dose: 256.0 mg/kg/injection, schedule: Q04DX003 (ip), vehicle: saline 102 % of control | [8] 96 % of control | dose: 512.0 mg/kg/injection, schedule: Q04DX003 (ip), vehicle: saline 105 % of control | dose: 1024.0 mg/kg/injection, schedule: Q04DX003 (ip), vehicle: saline 108 % of control

CN1CCS(=O)(=O)C1=O
inactive: dose: 9.5 mg/kg/injection, schedule: Q01DX001 (ip), vehicle: saline 98 % of control | dose: 19.0 mg/kg/injection, schedule: Q01DX001 (ip), vehicle: saline 98 % of control | dose: 38.0 mg/kg/injection, schedule: Q01DX001 (ip), vehicle: saline 109 % of control

NC1=NC(CCc2ccccc2)N(c2cccc(Cl)c2)C(N)=N1 (configuration not stated)
inactive: dose: 6.25 mg/kg/injection, schedule: Q01DX001 (ip), vehicle: saline 104 % of control | dose: 12.5 mg/kg/injection, schedule: Q01DX001 (ip), vehicle: saline 98 % of control | dose: 25.0 mg/kg/injection, schedule: Q01DX001 (ip), vehicle: saline 106 % of control

Cc1ccc(S(=O)(=O)c2ccc(F)cc2)cc1
inactive: [9] 104 % of control | [10] 95 % of control | [11] 97 % of control

Cc1c(Cl)cccc1NC(=O)Oc1cc(Cl)c(Cl)cc1Cl
inactive: [12] 92 % of control | [13] 96 % of control | [9] 95 % of control | [10] 106 % of control
